Experimental data taken from PubChem BioAssay (NCI).
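A five-concentration, 48-hour dose response in 96-well plates underlies each endpoint, interpolated linearly between surrounding concentrations. GI50 marks 50% less growth. TGI: total growth inhibition.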

Key:
Assay in all cases: inhibition of tumour cell growth, NCI panel, 48 h
[1] = system: SK-MEL-28 melanoma
[2] = system: PC-3 prostate
[3] = system: KM12 colon
[4] = system: BT-549 breast
[5] = system: HCC-2998 colon
[6] = system: NCI-H23 lung
[7] = system: SF-539 CNS
[8] = system: HT29 colon
[9] = system: CCRF-CEM leukemia
[10] = system: RPMI-8226 leukemia
[11] = system: CAKI-1 renal
[12] = system: SK-MEL-2 melanoma
[13] = system: TK-10 renal
[14] = system: OVCAR-8 ovarian
[15] = system: MDA-MB-468 breast
[16] = system: SF-268 CNS
[17] = system: MDA-MB-435
[18] = system: OVCAR-4 ovarian
[19] = system: RXF 393 renal
[20] = system: MOLT-4 leukemia
[21] = system: SK-MEL-5 melanoma
[22] = system: ACHN renal
[23] = system: UACC-62 melanoma
[24] = system: HCT-116 colon
[25] = system: SNB-75 CNS
[26] = system: EKVX NSCLC
[27] = system: HCT-15 colon
[28] = system: OVCAR-5 ovarian
[29] = system: NCI-H460 lung
[30] = system: MCF7 breast
[31] = system: SF-295 CNS
[32] = system: COLO 205 colon
[33] = system: NCI-H226 lung
[34] = system: IGROV1 ovarian
[35] = system: SN12C renal
[36] = system: LOX IMVI melanoma
[37] = system: U251 CNS
[38] = system: K-562 leukemia
[39] = system: SW-620 colon
[40] = system: A498 renal
[41] = system: SR leukemia
[42] = system: DU-145 prostate
[43] = system: M14 melanoma
[44] = system: NCI-H522 lung
[45] = system: HS 578T breast
[46] = system: HL-60(TB) leukemia
[47] = system: HOP-92 NSCLC
[48] = system: UO-31 renal
[49] = system: UACC-257 melanoma
[50] = system: A549 NSCLC
[51] = system: SNB-19 CNS
[52] = system: HOP-62 NSCLC
[53] = system: SK-OV-3 ovarian
[54] = system: T-47D breast
[55] = system: MALME-3M melanoma
[56] = system: 786-0 renal
[57] = system: OVCAR-3 ovarian
[58] = system: MDA-MB-231 breast

C=C1CC[C@@H]2[C@]3(C)COC(c4cn[nH]c4-c4ccc(C)cc4)O[C@@H]3CC[C@@]2(C)[C@@H]1C/C=C1/C(=O)OCC1O (stereo partly specified)
GI50 [1]: 12.8 µM
TGI [1]: 27 µM
GI50 [2]: 21.7 µM
TGI [2]: > 100 µM
GI50 [3]: 13.7 µM
TGI [3]: 35.8 µM
GI50 [4]: 11.1 µM
TGI [4]: 37.8 µM
GI50 [5]: 16.7 µM
TGI [5]: 30.4 µM
GI50 [6]: 14 µM
TGI [6]: 27 µM
GI50 [7]: 12.7 µM
TGI [7]: 25.3 µM
GI50 [8]: 13.1 µM
TGI [8]: 45.8 µM
GI50 [9]: 2.85 µM
TGI [9]: > 100 µM
GI50 [10]: 4.73 µM
TGI [10]: > 100 µM
GI50 [11]: 12.5 µM
TGI [11]: > 100 µM
GI50 [12]: 13.9 µM
TGI [12]: 30.4 µM
GI50 [13]: 22.5 µM
TGI [13]: 48.3 µM
GI50 [14]: 9.29 µM
TGI [14]: > 100 µM
GI50 [15]: 6.94 µM
TGI [15]: 22.1 µM
GI50 [16]: 34.7 µM
TGI [16]: > 100 µM
GI50 [17]: 7.38 µM
TGI [17]: 73.9 µM
GI50 [18]: 64.8 µM
TGI [18]: > 100 µM
GI50 [19]: 12.5 µM
TGI [19]: 25 µM
GI50 [20]: 5.14 µM
TGI [20]: > 100 µM
GI50 [21]: 12.6 µM
TGI [21]: 25.3 µM
GI50 [22]: 15.7 µM
TGI [22]: 36.3 µM
GI50 [23]: 13.3 µM
TGI [23]: 27 µM
GI50 [24]: 5.33 µM
TGI [24]: 20.6 µM
GI50 [25]: 20.6 µM
TGI [25]: > 100 µM
GI50 [26]: 18.2 µM
TGI [26]: 43.8 µM
GI50 [27]: 10.1 µM
TGI [27]: 25.5 µM
GI50 [28]: 15.5 µM
TGI [28]: 32.6 µM
GI50 [29]: 20 µM
TGI [29]: 46.9 µM
GI50 [30]: 4.88 µM
TGI [30]: 19.4 µM
GI50 [31]: 18.2 µM
TGI [31]: 36.5 µM
GI50 [32]: 15.5 µM
TGI [32]: 29.9 µM
GI50 [33]: 17.8 µM
TGI [33]: 44.7 µM
GI50 [34]: 17.5 µM
TGI [34]: 39.7 µM
GI50 [35]: 17.3 µM
TGI [35]: 42.8 µM
GI50 [36]: 3.76 µM
TGI [36]: 15.7 µM
GI50 [37]: 11.9 µM
TGI [37]: 28.6 µM
GI50 [38]: 5.55 µM
TGI [38]: > 100 µM
GI50 [39]: 4.6 µM
TGI [39]: 17.5 µM
GI50 [40]: 21 µM
TGI [40]: 37.2 µM
GI50 [41]: 7.16 µM
TGI [41]: > 100 µM
GI50 [42]: 24.6 µM
TGI [42]: > 100 µM
GI50 [43]: 12.6 µM
TGI [43]: 26.2 µM
GI50 [44]: 7.01 µM
TGI [44]: 22.5 µM
GI50 [45]: 63.9 µM
TGI [45]: > 100 µM
GI50 [46]: 3.38 µM
TGI [46]: 56.4 µM
GI50 [47]: 17.8 µM
TGI [47]: 42.5 µM
GI50 [48]: 12.5 µM
TGI [48]: 25.7 µM
GI50 [49]: 15.2 µM
TGI [49]: 44.4 µM
GI50 [50]: 26.4 µM
TGI [50]: > 100 µM
GI50 [51]: 14.5 µM
TGI [51]: 27.6 µM
GI50 [52]: 21.7 µM
TGI [52]: 75.2 µM
GI50 [53]: 26.5 µM
TGI [53]: 74.8 µM
GI50 [54]: 13.9 µM
TGI [54]: > 100 µM
GI50 [55]: 15.8 µM
TGI [55]: 33.5 µM
GI50 [56]: 16.7 µM
TGI [56]: 33.2 µM
GI50 [57]: 3.39 µM
TGI [57]: 13.8 µM
GI50 [58]: 19.2 µM
TGI [58]: 43.5 µM
